Source: patent EP0490919B1, “CYTOPROTECTIVE COMPOUNDS BEARING UNSATURATED HYDROCARBON GROUPS HAVING 16 TO 20 CARBON ATOMS” (VIRGINIA COMMONWEALTH UNIVERSITY, priority 1989, dated 1991)
Structures can show the parent of a compound that is named as a salt.

Experiments:
PLA2 = assay: Anti-PLA2 activity (Table 6); assay type: biochemical; conditions: read-out: IC-50 Anti-PLA2 Activity
[1] = Anti-oxidant activity (Table 6); conditions: read-out: IC-50 Anti-Oxidant Activity; nd = not detectable at ≤ 500 uM

Compound | IC50 (PLA2) | IC50 [1]
CCCCC/C=C\C/C=C\CCCCCCCC(=O)OC(C(=O)O)C(OC(=O)CCCCCCC/C=C\C/C=C\CCCCC)C(=O)O (centres unmarked) [PX-9] | 7.5 µM | 100 µM
CCCCCCCC/C=C\CCCCCCCC(=O)OC(C(=O)O)C(OC(=O)CCCCCCC/C=C\CCCCCCCC)C(=O)O (centres unmarked) [PX-10] | 7 µM | 60 µM
CCCCCCCC/C=C\CCCCCCCC(=O)OCC1(COC(=O)CCCCCCC/C=C\CCCCCCCC)COC(=O)CN1C(=O)CCCCCCC/C=C\CCCCCCCC [PX-11, Tricinyl Trioleate] | 2.6 µM | 145 µM
CCCCCCCC/C=C\CCCCCCCC(=O)OCC(N)(COC(=O)CCCCCCC/C=C\CCCCCCCC)COC(=O)CCCCCCC/C=C\CCCCCCCC [PX-12, P-Toluene Sulfonate Salt of Tris Trioleate] | 1.5 µM | 50 µM
CCCCCCCC/C=C\CCCCCCCC(=O)OCC(COC(=O)CCCCCCC/C=C\CCCCCCCC)(COC(=O)CCCCCCC/C=C\CCCCCCCC)NCCS(=O)(=O)O [PX-13, TES Trioleate] | 2.2 µM | 60 µM
CCCCC/C=C\C/C=C\CCCCCCCC(=O)OCC1(COC(=O)CCCCCCC/C=C\C/C=C\CCCCC)COC(=O)CN1C(=O)CCCCCCC/C=C\C/C=C\CCCCC [PX-15] | 19.2 µM | –
